A short description of one data set: physchem. To be noted: for solubility: aqueous with cosolvent or surfactant or cyclodextrin. On the procedure:
(§1) Ethanolamine (8 μL) was subsequently added and mixed using a VORTEX®. After mixing, the sample was dispersed in 466 μL of water for injection.
(§2) Ethanolamine (62 μL) was subsequently added and mixed using a VORTEX®. After mixing, the sample was dispersed in 784 μL of water for injection.
(§3) Digoxin (1 mg) was added to 28 μL of oleic acid and mixed using VORTEX. Ethanolamine (6 μL) was subsequently added and mixed using a VORTEX®. After mixing, the sample was dispersed in 966 μL of water for injection.
(§4) Digoxin (1 mg) was added to 1 mL of 0.25 M sodium oleate and mixed using a VORTEX®.
(§5) N-acetylsalicylic acid (18 mg) was added to 31 μL of oleic acid and mixed using a VORTEX®. Ethanolamine (6 μL) was subsequently added and mixed using a VORTEX®. After mixing, the sample was dispersed in 963 μL of water for injection.
(§6) N-acetylsalicylic acid (25 mg) was added to 1 mL of 0.25 M sodium oleate and mixed using a VORTEX®.
(§7) Paclitaxel (18 mg) was added to 31 μL of oleic acid and mixed using a VORTEX®. Ethanolamine (6 μL) was subsequently added and mixed using a VORTEX®. After mixing, the sample was dispersed in 963 μL of water for injection.
(§8) Paclitaxel (5.6 mg) was added to 1 mL of 0.1 M sodium oleate and mixed using a VORTEX®.
(§9) Paclitaxel (2 mg) was added to 1 mL of 1 M sodium caprylate and mixed by a VORTEX®.
Paclitaxel (7.2 mg) was added to 1 mL of 1 M sodium linoleate and mixed using a VORTEX®.
For example, β-Lapachone was dissolved (25 mg/mL) in ethanol:oleic acid (EtOH:OA) at volume to volume ratios of 70%:30%, 75%:25%, or 80%:20% EtOH:OA.
In another example, β-Lapachone was dissolved (50 mg/mL) in dimethylsulfoxide:oleic acid (DMSO:OA) at volume to volume ratios of 60%:40, 70%:30% DMSO:OA or in DMSO:EtOH:OA (30%:30%:40% v/v).
For example, Propofol (1% v/v or 10 mg/mL) was dissolved in 100 mM sodium oleate in 5% (w/v) dextrose in water for injection. The resulting solution containing 1% Propofol was lyophilized.
For example, Paclitaxel (5 mg/mL) was dissolved in 100 mM sodium oleate in 100% ethanol. Ethanol was completely evaporated using rotary evaporation at 20° C. The Paclitaxel-sodium oleate was reconstituted with WFI or 2.5% glycerol to provide 5 mg/mL, 10 mg/mL, or 20 mg/mL concentration of Paclitaxel.

Data set [1] can be described thus: Stability of the solubilized compound (remains soluble) by reverse phase HPLC. On the procedure: as §1, §2, §3, §4, §5, §6, §7, §8, §9
Paclitaxel (7.2 mg) was added to 1 mL of 1 M sodium linoleate and mixed using a VORTEX®. […]
For example, Propofol (1% v/v or 10 mg/mL) was dissolved in 100 mM sodium oleate in 5% (w/v) dextrose in water for injection. The resulting solution containing 1% Propofol was lyophilized. […]

Values after ≈ are worked out from the molar mass of the structure shown. Values joined by “and” are separate entries in the source; they are usually repeats but may differ in a detail not shown here. Equal entries are not always repeated. Where two headings read alike, the source gives them in different places.

Regarding `CC(=O)Oc1ccccc1C(=O)O` [N-acetylsalicylic acid], the “concentration at which soluble and formulation clear” value in the data set “physchem” was 25000 µg/mL. This molecule also returned a solubility in “physchem” (concentration at which soluble and formulation clear) of 18000 µg/mL (≈ 99.9 mM). Moreover, the “time remained soluble, formulation stable upon dilution” value (“time remained soluble” below) in data set [1] is “up to 24 hours”.

Turning to `CC1(C)CCC2=C(O1)c1ccccc1C(=O)C2=O` [β-Lapachone], the “final concentration of the dispersed compound” value in the data set “physchem” (OA-DMSO/EtOH mixture dispersed in equimolar sodium hydroxide solution) was 1.5 mg/mL and 2.0 mg/mL and 2.5 mg/mL. For the same molecule, the concentration dissolved is 50000 µg/mL in the data set “physchem” (in DMSO:OA 60%:40, 70%:30% or DMSO:EtOH:OA 30%:30%:40% v/v) and 25000 µg/mL in “physchem” (in ethanol:oleic acid 70%:30%, 75%:25% or 80%:20% v/v).

Turning to `C[C@H]1O[C@@H](O[C@H]2[C@@H](O)C[C@H](O[C@H]3[C@@H](O)C[C@H](O[C@H]4CC[C@@]5(C)[C@H](CC[C@@H]6[C@@H]5C[C@@H](O)[C@]5(C)[C@@H](C7=CC(=O)OC7)CC[C@]65O)C4)O[C@@H]3C)O[C@@H]2C)C[C@H](O)[C@@H]1O` [Digoxin], the solubility in the data set “physchem” (concentration at which soluble and formulation clear, 0.25 M sodium oleate) was found to be 1000 µg/mL; in “physchem” (concentration at which soluble and formulation clear, oleic acid, then ethanolamine, dispersed in water for injection) it was 1000 µg/mL. The “time remained soluble” value in data set [1] (0.25 M sodium oleate, dilution 1:10 in saline, RP-HPLC) was “up to 24 hours”; in data set [1] (oleic acid/ethanolamine formulation, dilution 1:4 in saline, RP-HPLC) it was “up to 24 hours”.

As for `CC(=O)O[C@H]1C(=O)[C@@]2(C)[C@H]([C@H](OC(=O)c3ccccc3)[C@]3(O)C[C@H](OC(=O)[C@H](O)[C@@H](NC(=O)c4ccccc4)c4ccccc4)C(C)=C1C3(C)C)[C@]1(OC(C)=O)CO[C@@H]1C[C@@H]2O` [Paclitaxel], the “fold greater than the solubility in water” value in the data set “physchem” is recorded as 630-850 fold. Besides, the concentration dissolved in the data set “physchem” (100 mM sodium oleate in 100% ethanol) is 5000 µg/mL. Further, the solubility in the data set “physchem” (solubilization) was in the range of 6300 to 8500 µg/mL (≈ 7.38 to 9.95 mM). In addition, in data set [1], the “time remained soluble” value is “up to 24 hours”.

With `CC(C)c1cccc(C(C)C)c1O` [Propofol], the concentration dissolved in the data set “physchem” (100 mM sodium oleate in 5% (w/v) dextrose in water for injection (1% v/v)) amounted to 10000 µg/mL. Moreover, the “stability of reconstituted lyophilized compound” value in data set [1] (1% in 100 mM sodium oleate/D5W, lyophilized and reconstituted, RP-HPLC) is listed as “stable without degradation or impurities”.

By solubility is commonly meant the concentration that dissolves in the medium under given conditions.

For the origin of these results see patent publication US7659310B2, “Methods of enhancing solubility of agents” (Formatech, Inc., priority 2004, dated 2010).
